Where a name gives a salt, the structure may show the parent alone. Read-outs that look alike come from different tables or passages of the source.
Tests used:
Proteus morganii 3202 = test: In vivo mouse protection test; parameters: species or system white Swiss mice; details: 4000 mg. × 2 doses
From the text: (§1) Methods: The method employed in this characterization is as follows: Female white Swiss mice, average weight 20-23 grams, were infected intraperitoneally with 3-20 times the number of organisms calculated to be lethal for 50% of the infected control animals (3-20 LD50 doses). At the time of infection and again six hours later, therapy was given by the designated route. Controls of the virulence of the culture and the toxicity of the antibiotic for uninfected mice were included in the tests. Seven days after infection the test was considered complete and the amount of the antibiotic (I) that would be required to protect 50% of the infected and treated animals was calculated by the method of Knudsen and Curtis; J. Amer. Stat. Assoc. Vol. 42: page 282 (1947).
The method employed in these studies is the same as described above with regard to the in vivo characterization of 810A. The results of these tests are described below in Table XIb:
Administration was by subcutaneous injection. At the completion of the test period, usually seven days after administration, the amount of product required to protect 50% of the mice (ED50) from this otherwise fatal injection was calculated: […]

Proteus morganii 356 [1] = test: In vivo mouse protection test, cephalosporin-resistant clinical isolate; parameters: species or system white Swiss mice; details: s.c. × 2 doses
From the text: as §1
In addition to the aforementioned in vivo trials of the product, a clinical isolate of Proteus morganii 356 which is resistant to cephalosporins and capable of degrading cephalosporin C, was employed in a mouse protection test performed in the same manner as reported above.

[2] = system: Aerobacter cloacae (MB-2646); test: Bacterial inactivation, cell-free extract; format: biochemical; details: for Antibiotic Activity Remaining: starting 250 μg./ml.
Protocol: The ability of Antibiotic 810A and cephalosporin C to withstand the degradative effect of the culture Aerobacter cloacae (MB-2646) was also determined. This culture is gram-negative and resistant to cephalosporin C. […] The source of the inactivating substance is a 1:160 dilution of the filtrate of an 18 hour 37° C. shake culture of Aerobacter cloacae MB-2646 in nutrient broth containing 0.2% yeast extract. Table XIV, infra, indicates the percent inactivation of Antibotic 810A, cephalothin, cephaloridine and cephalosporin C on Vibrio percolans (MB-1272) via this method:
Using the same assay procedure as described above, Table XV, infra, indicates the relative resistance of Antibiotic 810A to enzymatic inactivation by Aerobacter cloacae. The starting concentration is 250 μg./ml. Results are expressed in μg./ml.

[3] = system: gram-negative and gram-positive bacteria; test: Antibacterial activity (general statements); format: cell-based
Proteus vulgaris MB-838 = test: Disc-plate assay using Proteus vulgaris
[4] = system: Alcaligenes faecalis (MB-9); details: known property of the organism; cited from earlier work
penicillinase = details: cited from earlier work
[5] = system: gram-negative and gram-positive bacteria; details: cited from earlier work
Escherichia coli 236 = test: Bacterial inactivation; details: four hours; B. subtilis (MB-964); 240 min
Proteus morganii 251 = test: Bacterial inactivation; details: four hours; B. subtilis (MB-964); 240 min
Proteus morganii 356 [6] = test: Bacterial inactivation; details: four hours; B. subtilis (MB-964); 240 min
Proteus mirabilis 241 = test: Bacterial inactivation; details: four hours; B. subtilis (MB-964); 240 min
[7] = system: Alcaligenes viscosus (MB-12); test: Bacterial inactivation, washed bacterial cells; details: 4 hour incubation; assayed on B. subtilis (MB-964) plates
[8] = system: gram-negative and gram-positive infections; test: In vivo protection against infection (general statements); parameters: species or system mice
From the text: as §1
The method employed in these studies is the same as described above with regard to the in vivo characterization of 810A.

[9] = system: degradative bacteria / enzymatic degradation; test: Resistance to enzymatic degradation / bacterial inactivation (general statements); format: biochemical; details: compared with cephalosporin C
From the text: Bacterial Inactivation with 810A: An in vitro study was designed to determine the resistance of Antibiotic 810A, to bacterial inactivation as compared with cephalosporin C, cephaloridine and cephalothin.

[10] = system: Alcaligenes faecalis (MB-9); details: alcaligenes faecalis cells, 3 h
Escherichia coli = test: In vitro disc-plate agar diffusion, antibacterial spectrum (7 mm disc; 7 mm = no inhibition zone); format: cell-based; details: 16 h, 192 μg/ml, inoculum 5 ml/150 ml, 25° C., read-out: Inhibition Zone Diameter
Bacillus sp. = test: In vitro disc-plate agar diffusion, antibacterial spectrum (7 mm = no zone); format: cell-based; details: 16 h, 192 μg/ml, inoculum 5 ml/150 ml, 25° C., read-out: Inhibition Zone Diameter
Proteus vulgaris = test: as above; format: cell-based; details: 16 h, read-out: Inhibition Zone Diameter
Bacillus subtilis = test: as above; format: cell-based; details: 16 h, read-out: Inhibition Zone Diameter
Salmonella gallinarum = test: as above; format: cell-based; details: Salmonella enterica, 16 h, 192 μg/ml, inoculum 10 ml/150 ml, 25° C., read-out: Inhibition Zone Diameter
Xanthomonas vesicatoria = test: as above; format: cell-based; details: 16 h, read-out: Inhibition Zone Diameter
Escherichia coli strains = test: microbe, parasite or virus in culture; format: cell-based; details: 16 h, 192 μg/ml, Sensitive parent, 25° C., read-out: Inhibition Zone Diameter
Escherichia coli W-MB-60 = test: Special effects spectrum in vitro study, disc-plate (7 mm = no zone); format: cell-based; details: WMB60, 16 h
Vibrio percolans MB-1272 = test: Disc-plate assay using Vibrio percolans
[11] = 2 hour incubation, assay organism B. subtilis 964
[12] = 2 hour incubation, assay organism V. percolans 1272
[13] = 2 hour incubation, cell-free extract, assayed on V. percolans (MB-1272) plates

In the case of O=C(Cc1cccs1)N[C@@H]1C(=O)N2C(C(=O)[O-])=C(C[n+]3ccccc3)CS[C@H]12 [Cephaloridine], the “protection against Proteus morganii 3202” value (Proteus morganii 3202) is reported as “failed to protect”, the “ED50 by Subcutaneous Route × 2 Doses (average of Two Trials)” value (Proteus morganii 356 [1]) is reported as 9,270 μg and the “Antibiotic Activity Remaining” value [2, 11] is reported as less than 10 µg/mL. For the same compound, the “Antibiotic Activity Remaining” value [2, 12] was less than 10 µg/mL and the “percent inactivation” value ([2]; aerobacter cloacae culture filtrate, 2 h) was 96%.
In the case of CO[C@@]1(NC(=O)CCC[C@@H](NC(=O)OC(C)(C)C)C(=O)O)C(=O)N2C(C(=O)O)=C(COC(N)=O)CS[C@@H]21 [7β-(D-5N-tert-tertiary-butoxycarbonylamino-5-carboxyvaleramido)-3-(carbamoyloxymethyl)-7-methoxy-3-cephem-4-carboxylic acid], the “biopotency relative to starting material” value ([3]; relative to disodium salt of 842A) is reported as “one-tenth”.
Compound COC(=Cc1ccc(O)cc1)C(=O)OCC1=C(C(=O)O)N2C(=O)[C@](NC(=O)CCC[C@@H](N)C(=O)O)(OC)[C@H]2SC1 [7β-(D-5-amino-5-carboxyvaleramido)-3-(α-methoxy-p-hydroxycinnamoyloxymethyl)-7-methoxy-3-cephem-4-carboxylic acid] has an IC (25 mm zone) (Proteus vulgaris MB-838; Proteus vulgaris, MB838, read-out: bio-potency (concentration for a 25 mm. zone)) of 18 µg/mL.
In the case of CC(=O)OCC1=C(C(=O)O)N2C(=O)[C@@H](NC(=O)CCC[C@@H](N)C(=O)O)[C@H]2SC1 [Cephalosporin C], the “percent inactivation” value [2, 13] is listed as 96%, the “inactivation of cephalosporin C” value [4] is listed as “completely inactivate” and the resistance to penicillinase (penicillinase) is listed as “inherent resistance to penicillinase”. For the same compound, the antibacterial activity [5] was “only moderately active”, the antibacterial activity ([5]; listed as cepahlosporin C) was “relatively low antibacterial activity” and the percent inactivation (Escherichia coli 236) was greater than 99%. It also gave a percent inactivation (Proteus morganii 251) greater than 99%, a percent inactivation (Proteus morganii 356 [6]) greater than 99% and a percent inactivation (Proteus mirabilis 241) of 72%. The “percent inactivation” value [7] was greater than 99%.
With COC(=Cc1ccc(OS(=O)(=O)O)cc1)C(=O)OCC1=C(C(=O)O)N2C(=O)[C@](NC(=O)CCC[C@@H](N)C(=O)O)(OC)[C@H]2SC1 [Ic, 7β-(D-5-amino-5-carboxyvaleramido)-3-(α-methoxy-p-sulfooxycinnamoyloxymethyl)-7-methoxy-3-cephem-4-carboxylic acid] the “in vivo protection / activity” value ([8]; mouse, in vivo) was “when administered intraperitoneally, it is effective against a variety of gram-negative and gram-positive infections”, the “oral protection against infections” value ([8]; oral) was “protects against infections due to Proteus vulgaris” and the “resistance to enzymatic degradation” value [9] was “more resistant to enzymatic degradation than cephalosporin C”. For the same compound, the “Total Biological Units” value (Proteus vulgaris MB-838; Example 6 separation) was 10,000 units.
For CC(=O)OCC1=C(C(=O)O)N2C(=O)[C@@H](NC(=O)Cc3cccs3)[C@H]2SC1 [Cephalothin], the “protection against Proteus morganii 3202” value (Proteus morganii 3202) was “failed to protect”, the “ED50 by Subcutaneous Route × 2 Doses (average of Two Trials)” value (Proteus morganii 356 [1]) was > 20,000 μg and the “percent inactivation” value [2, 13] was 66%. The “Antibiotic Activity Remaining” value [2, 11] was 140 µg/mL, the “Antibiotic Activity Remaining” value [2, 12] was 85 µg/mL and the “percent inactivation” value [10] was 50%.
In the case of CO[C@@]1(NC(=O)CCC[C@@H](N)C(=O)O)C(=O)N2C(C(=O)O)=C(CN=[N+]=[N-])CS[C@@H]21 [7β-(D-5-amino-5-carboxyvaleramido)-3-(azidomethyl)-7-methoxy-3-cephem-4-carboxylic acid], the bioactivity ([3]; several strains of bacteria) is reported as “possessed bioactivity against several strains of bacteria”.
Compound CO[C@@]1(NC(=O)CCC[C@@H](N)C(=O)O)C(=O)N2C(C(=O)O)=C(COC(N)=O)CS[C@@H]21 [Sodium Salt] has a zone of inhibition at 192 µg/mL (Escherichia coli) of 18 mm, a zone of inhibition at 192 µg/mL (Bacillus sp.) of 7 mm and a zone of inhibition at 192 µg/mL (Proteus vulgaris) of 24 mm. The zone of inhibition at 192 µg/mL (Bacillus subtilis) was 18 mm, the zone of inhibition at 192 µg/mL (Salmonella gallinarum) was 25 mm and the zone of inhibition at 192 µg/mL (Xanthomonas vesicatoria) was 17 mm. It also gave a zone of inhibition at 192 µg/mL (Escherichia coli strains) of 18 mm, a zone of inhibition at 192 µg/mL (Escherichia coli W-MB-60; pH 9, read-out: Inhibition Zone Diameter, 192 μg/ml, 0.1 M Phosphate Buffer pH 9) of 24 mm and a zone of inhibition at 192 µg/mL (Escherichia coli W-MB-60; read-out: Inhibition Zone Diameter, 192 μg/ml, Cation Exchange Resin (Dow ET 91) 1%) of 18 mm. The zone of inhibition at 192 µg/mL (Escherichia coli W-MB-60; read-out: Inhibition Zone Diameter, 192 μg/ml, Control (no additions)) was 18 mm and the “concentration giving a 25 mm. zone” value (Vibrio percolans MB-1272; 25 mm. zone, listed as Sodium Salt of 842A) was 5 µg/mL.
For CC1(C)S[C@@H]2[C@H](NC(=O)Cc3ccccc3)C(=O)N2[C@H]1C(=O)O [Penicillin G], the resistance to penicillinase (penicillinase) is given as “in the presence of penicillinase it is degraded to a form which is ineffective against most pathogens”.
For CO[C@@]1(NC(=O)CCC[C@@H](N)C(=O)O)C(=O)N2C(C(=O)O)=C(C)CS[C@@H]21 [7β-(D-5-amino-5-carboxyvaleramido)-3-methyl-7-methoxy-3-cephem-4-carboxylic acid], the bioactivity (Vibrio percolans MB-1272; 50 μg/ml) was “Inactive”.
